Source: patent US8404708B2, “Dual NK1/NK3 receptor antagonists” (Hoffmann-La Roche Inc., priority 2004, dated 2013)

Legend:
human NK1 receptor = human NK1 receptor (Homo sapiens, UniProt P25103); assay: NK1 receptor binding, [3H]substance P displacement, CHO cell membranes; settings: first value of the cell pKi NK1/NK3; human NK1 receptor, [3H]substance P
[1] = target: T1, Recombinant human NK3 (hNK3) receptor (Homo sapiens, UniProt P29371); assay: NK3 receptor binding, [3H]SR142801 displacement, membrane preparations; settings: second value of the cell pKi NK1/NK3; hNK3 receptor, [3H]SR142801
T1 construct: expressed in transfected cells
T1 sequence (P29371 1-465): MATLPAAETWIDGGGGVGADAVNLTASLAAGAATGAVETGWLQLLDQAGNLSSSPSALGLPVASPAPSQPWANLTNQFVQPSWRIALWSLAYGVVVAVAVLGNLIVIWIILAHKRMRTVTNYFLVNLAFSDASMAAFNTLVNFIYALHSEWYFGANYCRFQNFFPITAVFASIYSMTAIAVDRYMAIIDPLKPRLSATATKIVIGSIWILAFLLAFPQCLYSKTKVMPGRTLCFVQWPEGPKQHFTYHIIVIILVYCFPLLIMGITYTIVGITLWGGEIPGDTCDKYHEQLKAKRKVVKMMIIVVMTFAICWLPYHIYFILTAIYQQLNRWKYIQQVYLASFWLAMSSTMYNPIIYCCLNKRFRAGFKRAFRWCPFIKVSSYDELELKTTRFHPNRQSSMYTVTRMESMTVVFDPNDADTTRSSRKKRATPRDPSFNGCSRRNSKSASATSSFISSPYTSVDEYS
How it was run: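 Incubation ran 90 min at room temperature in 50 mM Tris-HCl pH 7.4 with 0.1% BSA, 4 mM MnCl2 and 1 μM phosphoramidon, using about 2.5 μg hNK3 membrane protein per well. Nonspecific binding was defined with 10 μM SB222200, and bound radioactivity was collected on PEI-soaked GF/C filters for scintillation counting.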

Sequence of human NK1 receptor (P25103 whole entry): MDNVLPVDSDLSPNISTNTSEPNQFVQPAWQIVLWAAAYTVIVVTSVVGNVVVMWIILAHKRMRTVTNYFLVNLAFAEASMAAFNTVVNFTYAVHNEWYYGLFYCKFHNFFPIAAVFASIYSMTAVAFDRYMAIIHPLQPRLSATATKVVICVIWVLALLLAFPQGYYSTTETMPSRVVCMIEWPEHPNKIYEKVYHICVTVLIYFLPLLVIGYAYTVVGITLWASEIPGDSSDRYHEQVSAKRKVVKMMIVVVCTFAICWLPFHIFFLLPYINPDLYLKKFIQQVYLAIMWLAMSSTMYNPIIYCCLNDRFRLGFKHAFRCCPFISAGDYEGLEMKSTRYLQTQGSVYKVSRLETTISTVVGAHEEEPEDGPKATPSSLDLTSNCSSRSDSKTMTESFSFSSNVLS

Compound | Ki (human NK1 receptor) [nM] | Ki [1] [nM]
Cc1cc(F)ccc1-c1cc(N2[C@H](CO)CC[C@H]2CO)ncc1N(C)C(=O)C(C)(C)c1cc(C(F)(F)F)cc(C(F)(F)F)c1 [Example 198, (2S,5S)-N-[6-(2,5-Bis-hydroxymethyl-pyrrolidin-1-yl)-4-(4-fluoro-2-methyl-phenyl)-pyridin-3-yl]-2-(3,5-bis-trifluoromethyl-phenyl)-N-methyl-isobutyramide] | 1.78 | 1.1
Cc1cc(F)ccc1-c1cc(N2[C@@H](CO)CC[C@@H]2CO)ncc1N(C)C(=O)C(C)(C)c1cc(C(F)(F)F)cc(C(F)(F)F)c1 [Example 199, (2R,5R)-N-[6-(2,5-Bis-hydroxymethyl-pyrrolidin-1-yl)-4-(4-fluoro-2-methyl-phenyl)-pyridin-3-yl]-2-(3,5-bis-trifluoromethyl-phenyl)-N-methyl-isobutyramide] | 2.51 | 15.5
Cc1ccc(-c2cc(N3C[C@H](O)C[C@H]3CO)ncc2N(C)C(=O)C(C)(C)c2cc(C(F)(F)F)cc(C(F)(F)F)c2)cc1 [Example 200, (2S,4R)-2-(3,5-Bis-trifluoromethyl-phenyl)-N-[6-(4-hydroxy-2-hydroxymethyl-pyrrolidin-1-yl)-4-p-tolyl-pyridin-3-yl]-N-methyl-isobutyramide] | 2.34 | 18.2
CN(C(=O)C(C)(C)c1cc(C(F)(F)F)cc(C(F)(F)F)c1)c1cnc(N2C[C@H](O)C[C@H]2CO)cc1-c1ccccc1 [Example 201, (2S,4R)-2-(3,5-Bis-trifluoromethyl-phenyl)-N-[6-(4-hydroxy-2-hydroxymethyl-pyrrolidin-1-yl)-4-phenyl-pyridin-3-yl]-N-methyl-isobutyramide] | 1.48 | 8.71
CN(C(=O)C(C)(C)c1cc(C(F)(F)F)cc(C(F)(F)F)c1)c1cnc(N2C[C@H](O)C[C@H]2CO)cc1-c1ccc(F)cc1 [Example 202, (2S,4R)-2-(3,5-Bis-trifluoromethyl-phenyl)-N-[4-(4-fluoro-phenyl)-6-(4-hydroxy-2-hydroxymethyl-pyrrolidin-1-yl)-pyridin-3-yl]-N-methyl-isobutyramide] | 1.2 | 7.41
CN(C(=O)C(C)(C)c1cc(C(F)(F)F)cc(C(F)(F)F)c1)c1cnc(N2C[C@H](O)C[C@H]2CO)cc1-c1ccc(Cl)cc1 [Example 203, (2S,4R)-2-(3,5-Bis-trifluoromethyl-phenyl)-N-[4-(4-chloro-phenyl)-6-(4-hydroxy-2-hydroxymethyl-pyrrolidin-1-yl)-pyridin-3-yl]-N-methyl-isobutyramide] | 2.04 | 10.5
CN(C)c1ccc(-c2cc(N3C[C@H](O)C[C@H]3CO)ncc2N(C)C(=O)C(C)(C)c2cc(C(F)(F)F)cc(C(F)(F)F)c2)cc1 [Example 204, (2S,4R)-2-(3,5-Bis-trifluoromethyl-phenyl)-N-[4-(4-dimethylamino-phenyl)-6-(4-hydroxy-2-hydroxymethyl-pyrrolidin-1-yl)-pyridin-3-yl]-N-methyl-isobutyramide] | 15.1 | 14.8
CN(C(=O)C(C)(C)c1cc(C(F)(F)F)cc(C(F)(F)F)c1)c1cnc(N2C[C@H](O)C[C@H]2CO)cc1-c1cccc(Br)c1 [Example 205, (2S,4R)-2-(3,5-Bis-trifluoromethyl-phenyl)-N-[4-(3-bromo-phenyl)-6-(4-hydroxy-2-hydroxymethyl-pyrrolidin-1-yl)-pyridin-3-yl]-N-methyl-isobutyramide] | 1.95 | 8.51
CN(C(=O)C(C)(C)c1cc(C(F)(F)F)cc(C(F)(F)F)c1)c1cnc(N2C[C@H](O)C[C@H]2CO)cc1-c1cccc(Cl)c1 [Example 206, (2S,4R)-2-(3,5-Bis-trifluoromethyl-phenyl)-N-[4-(3-chloro-phenyl)-6-(4-hydroxy-2-hydroxymethyl-pyrrolidin-1-yl)-pyridin-3-yl]-N-methyl-isobutyramide] | 1.86 | 15.8
